Experimental data published in article PMC7094222 (Febs Letters, 2015).

How the values were obtained:
Format in all cases: biochemical, Human Coxsackievirus B3
CVB3 3C^pro [1] = target: T1, CVB3 3C^pro (Coxsackievirus B3, UniProt P03313); assay: Enzyme kinetics study
CVB3 3C^pro [2] = target: T1, CVB3 3C^pro; assay: Reversibility test by large and rapid dilution of enzyme-inhibitor complex; details: 50-fold IC50 pre-incubated 30 min at 35 °C, then diluted 50-fold
CVB3 3C^pro [3] = target: T1, CVB3 3C^pro; assay: FRET-based enzyme assay of CVB3 3C^pro

T1 sequence (P03313 1541-1723): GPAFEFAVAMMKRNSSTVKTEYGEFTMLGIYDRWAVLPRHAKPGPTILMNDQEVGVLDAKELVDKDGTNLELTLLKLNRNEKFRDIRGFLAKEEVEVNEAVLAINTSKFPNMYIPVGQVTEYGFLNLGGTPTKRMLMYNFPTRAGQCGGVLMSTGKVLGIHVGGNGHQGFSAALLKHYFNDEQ

NC(CO)C(=O)NNCc1ccc(O)c(O)c1O (centres unmarked) [Benserazide, 2-amino-3-hydroxy-N'-(2,3,4-trihydroxybenzyl)propanehydrazide]
Ki (CVB3 3C^pro [1]): 4.7 µM
mechanism of the inhibition (CVB3 3C^pro [1]; inhibitor 0–10 μM, substrate 0–400 μM, V max reduced without a change in K m): non-competitive inhibitor
reversibility of inhibition (CVB3 3C^pro [2]): reversible pattern

NC(CO)C(=O)NNCc1ccc(O)c(O)c1 (centres unmarked) [9e, 2-amino-N'-(3,4-dihydroxybenzyl)-3-hydroxypropanehydrazide]
inhibition at 50 µM (CVB3 3C^pro [3]; read-out: % Inhibition 50 μM): 56.2%

NC(CO)C(=O)N/N=C\c1ccc(O)c(O)c1O (centres unmarked) [8a, (Z)-2-amino-3-hydroxy-N'-(2,3,4-trihydroxybenzylidene)propanehydrazide]
IC50 (CVB3 3C^pro [3]): 2.72 µM
